This is an account of results in US8574569B2, “Stabilized protease composition” (Trobio AB, priority 2005, dated 2013).

Data set [1] addresses T1, human thrombin (Homo sapiens, UniProt P00734). The experiment in a line: Stability of human thrombin solutions (fibrinogen clotting activity decay curves, T 70%). Set-up: The thrombin used in the study is human thrombin derived from plasma; purchased Biovitrum AB, Sweden; host or cells: human plasma. It counts as physicochemical. The procedure: This value, denoted “T 70%”, is chosen since it corresponds to what could be accepted as a maximum permitted loss in activity during a life span of a commercial product.
In the experimental studies, a high temperature (37° C.) has been used, as well as a high concentration of enzyme. This has been made in order to obtain stability data in reasonably short times, and not have to wait for months or years.
(§1) The clotting times were measured using an Amelungen Kc 1 coagulometer (Amelungen, Germany). […] From the values obtained, activity decay curves could be constructed.

Data set [2] concerns the target T2, plasmin (Homo sapiens, UniProt P00747).
T2 construct: 100 μg/ml of plasmin (specific activity 3.2 units/mg, Sigma-Aldrich); purchased Sigma-Aldrich
Put plainly: Stability of plasmin solutions (Chromozym TH chromogenic substrate, T 70%). It counts as physicochemical. To be noted: for T 70%: 100 μg/ml plasmin in 10 mM HEPES, 0.13 M NaCl, pH 7.4, 37° C.; for increase in stability of plasmin composition, factor: T 70% relative to plasmin without additives, 37° C. The protocol:
The stabilization of solutions of plasmin in accordance with the invention was tested. The activity of plasmin was determined using chromogenic peptide substrate Chromozym TH (Pentapharm, Switzerland) and measurement of absorbance change at 405 nm in a spectrophotometer. Solutions containing 100 μg/ml of plasmin (specific activity 3.2 units/mg, Sigma-Aldrich) in 10 mM HEPES and 0.13 M NaCl, pH 7.4, as well as stabilizers as indicated in Table 2 below were incubated at 37° C., and samples were taken out at various time intervals for activity determination.

Data set [3] addresses T1, human thrombin. To be noted: for Apparent inhibition (%) / Apparent thrombin concentration (U/ml): 89 units/ml human thrombin, 0.01 M HEPES, 0.13 M NaCl, pH 7.4. The procedure:
The clotting tests in this experimental setup were performed in 0.01 M HEPES, 0.13 M NaCl buffer of pH 7.4, which is according to standard procedure (EU Pharmacopeia). […] Solutions of various concentrations of morpholine were prepared in the HEPES buffer by adding a concentrated morpholine solution adjusted to pH 7.4.

The target in data set [4] is T3, trypsin (Bos taurus, UniProt P00760).
T3 construct: 100 μg/ml of trypsin (TPCK-treated, Sigma-Aldrich); purchased Sigma-Aldrich
T3 sequence (P00760 24-246): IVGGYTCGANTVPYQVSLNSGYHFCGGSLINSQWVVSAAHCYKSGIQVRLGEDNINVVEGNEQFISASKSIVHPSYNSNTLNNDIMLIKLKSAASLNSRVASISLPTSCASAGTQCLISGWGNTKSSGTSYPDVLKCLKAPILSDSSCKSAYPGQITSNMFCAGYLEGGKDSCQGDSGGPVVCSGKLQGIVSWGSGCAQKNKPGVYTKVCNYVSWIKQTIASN
Put plainly: Stability of trypsin solutions (TAME substrate, T 70%). The conditions noted are these: for T 70%: 100 μg/ml trypsin in 10 mM HEPES, 0.13 M NaCl, pH 7.4, 37° C.; for increase in stabilization of trypsin, factor: T 70% relative to trypsin without additives, 37° C. It counts as physicochemical. The procedure:
The stabilization of solutions of trypsin in accordance with the invention was tested. The activity of trypsin was determined using tosyl arginine methyl ester (TAME) as substrate and measuring the absorbance change at 247 nm in a spectrophotometer. Solutions containing 100 μg/ml of trypsin (TPCK-treated, Sigma-Aldrich) in 10 mM HEPES and 0.13 M NaCl, pH 7.4, as well as stabilizers as indicated in Table 3 below were incubated at 37° C., and samples were taken out at various time intervals for activity determination.

Data set [5] has as its target T4, bovine thrombin (Bos taurus, UniProt P00735).
T4 construct: purchased Baxter
Put plainly: Stability of bovine thrombin solutions (T 70%). The format is physicochemical. The conditions noted are these: 0.4 mg/ml bovine thrombin (Baxter) in HEPES buffer, 37° C. The procedure: as §1

Data set [6] deals with T1, human thrombin. The experiment in a line: Stability of human thrombin solutions (fibrinogen clotting activity decay curves, T 70%). The conditions noted are these: 1 mg/ml thrombin in 10 mM HEPES, 0.13 M NaCl, pH 7.4. It counts as physicochemical. Set-up: The thrombin used in the study is human thrombin derived from plasma; purchased Biovitrum AB, Sweden; host or cells: human plasma.

Where [7] appears, read: T 70% relative to 1 mg/ml thrombin without additives, 37° C.
Where [8] appears, read: time to reach 70% of initial activity, 1 mg/ml thrombin in 10 mM HEPES, 0.13 M NaCl, pH 7.4, 37° C.

Like-named read-outs stand apart in the source and are kept apart here.

T2 sequence (P00747 581-810 limits assumed, species assumed): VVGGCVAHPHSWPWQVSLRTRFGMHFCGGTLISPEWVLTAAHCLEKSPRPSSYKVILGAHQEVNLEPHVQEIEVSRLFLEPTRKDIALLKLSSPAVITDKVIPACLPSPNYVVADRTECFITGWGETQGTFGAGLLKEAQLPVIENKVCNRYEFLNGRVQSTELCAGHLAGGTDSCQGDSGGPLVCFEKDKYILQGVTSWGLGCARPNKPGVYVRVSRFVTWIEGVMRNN
T2 sequence (P00747 97-580 partner limits assumed, species assumed): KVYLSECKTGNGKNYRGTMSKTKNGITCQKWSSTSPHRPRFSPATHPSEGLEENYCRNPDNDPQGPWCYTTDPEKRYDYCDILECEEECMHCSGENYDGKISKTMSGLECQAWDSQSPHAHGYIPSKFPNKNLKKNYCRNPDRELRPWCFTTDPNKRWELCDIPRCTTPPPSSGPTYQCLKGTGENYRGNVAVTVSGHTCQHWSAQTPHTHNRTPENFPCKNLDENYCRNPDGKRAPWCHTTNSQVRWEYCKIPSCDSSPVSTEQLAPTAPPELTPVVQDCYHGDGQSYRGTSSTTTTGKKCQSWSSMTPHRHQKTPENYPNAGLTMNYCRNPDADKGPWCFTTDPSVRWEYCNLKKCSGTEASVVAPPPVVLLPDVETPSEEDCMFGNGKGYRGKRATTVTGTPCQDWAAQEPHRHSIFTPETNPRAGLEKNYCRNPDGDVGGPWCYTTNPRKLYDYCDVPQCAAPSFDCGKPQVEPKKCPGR

On to `O=S(=O)(O)CCCN1CCOCC1` [MOPS, 3-(N-morpholino)propanesulfonic acid], for which the “increase in stabilization, factor” value in data set [1] (setting [7]) was determined as 4.7. The “T 70%” value in data set [1] (pH 7.4) is given as 7.5 days.

For the compound `CCN(CC)CCN` [N,N-diethylethylenediamine], in data set [2], the “T 70%” value stood at 8 h and the “increase in stability of plasmin composition, factor” value (“increase in stability” below) is listed as 2.7. The “T 70%” value in data set [1] (setting [8]) was found to be 10 days.

For the compound `[Cl-].[Na+]` [NaCl, reference compound], the “Apparent inhibition (%)” value in data set [3] (0.05 M added) amounted to 17%; in data set [3] (0.10 M added), 40%; in data set [3] (0.15 M added), 34%; in data set [3] (0.20 M added), 37%. Moreover, the “Apparent thrombin concentration (U/ml)” value in data set [3] (0.05 M added) came out at 74 U/ml; in data set [3] (0.10 M added), 53 U/ml; in data set [3] (0.15 M added), 58 U/ml; in data set [3] (0.20 M added) it was 55 U/ml.

For the compound `N=C(N)c1ccccc1` [benzamidine, reference compound], the “T 70%” value in data set [2] turned out to be 16 h; in data set [4], 43 h. Also, in data set [4], the “increase in stabilization of trypsin, factor” value was 72.

Turning to `C1COCCN1` [morpholine], the entries for the “T 70%” value in data set [2], in data set [4] and in data set [1] (setting [8]) were 12 h, 8 h and 8.5 days, respectively. Moreover, the “increase in stability” value in data set [2] was 4. The “Apparent inhibition (%)” value turned out to be 4% in data set [3] (0.05 M added), 20% in data set [3] (0.10 M added), 45% in data set [3] (0.15 M added) and 43% in data set [3] (0.20 M added). In addition, the “Apparent thrombin concentration (U/ml)” value in data set [3] (0.05 M added) is 87 U/ml; in data set [3] (0.10 M added) it was 71 U/ml; in data set [3] (0.15 M added), 49 U/ml; in data set [3] (0.20 M added) it was 51 U/ml. Further, the “inhibitor of thrombin (conclusion)” value in data set [3] (clotting time prolongation ascribed to ionic strength) is “not an inhibitor of thrombin”. Moreover, the “increase in stabilization of trypsin, factor” value in data set [4] came to 13.

Turning to `O=S(=O)(O)CCCCN1CCOCC1` [morpholino butyl sulphonic acid], the “T 70%” value in data set [1] (setting [8]) is 4.0 days.

Consider `OCCN1CCOCC1` [morpholino ethyl alcohol], for which, in data set [1] (setting [8]), the “T 70%” value stood at 3.8 days.

On to `O=S(=O)(O)CCN1CCOCC1` [morpholino ethyl sulphonic acid], for which the “T 70%” value in data set [1] (setting [8]) worked out at 3.2 days.

Take `O=C(O)CCCN1CCOCC1` [morpholino propyl carboxylic acid]: the “T 70%” value in data set [1] (setting [8]) was determined as 4.1 days.

N-(2′-phenoxy)-4-aminopyridin: in data set [1] (setting [7]), the “increase in stabilization, factor” value is 22. Besides, the “T 70%” value in data set [1] (time to reach 70% of initial activity, 1 mg/ml thrombin in 10 mM HEPES, 0.13 M NaCl, pH 7.4, 37° C., listed as 1.9 mM N-(2′-phenoxy)-4-aminopyridin) amounted to 35 days; in data set [1] (time to reach 70% of initial activity, 1 mg/ml thrombin in 10 mM HEPES, 0.13 M NaCl, pH 7.4, 37° C., listed as 3.1 mM N-(2′-phenoxy)-4-aminopyridin), 74 days.

With aminobenzamidine [reference compound], the “T 70%” value in data set [2] turned out to be 52 h; in data set [1] (pH 7.4), 20 days. Further, in data set [2], the “increase in stability” value is listed as 17. Also, in data set [1], the “increase in stabilization, factor” value is listed as 12.5.

“bovine thrombin: bovine thrombin (Baxter), solution in HEPES buffer without additives”: the “T 70%” value in data set [5] is reported as 1.3 days.

As for thrombin, the “T 70%” value in data set [1] (15.0 activity units/ml human thrombin in HEPES buffer, pH 7.4) came to 23 days; in data set [6] (refrigerator storage (around 5° C.)), 36 days; in data set [6] (room temperature (around 21° C.)), 5.4 days.
